Measured values: the NIST ThermoML archive (doi:10.1016/j.jct.2019.01.024)

Experiment: mn = molality of the nth substance listed, in mol/kg
Settings: 101 kPa, Liquid; for viscosity: Falling or rolling sphere viscometry; for speed of sound: Frequency=3 MHz, Single path-length method; for mass density: Vibrating tube method

NNC(=O)c1ccncc1 [isonicotinic acid hydrazide] + O
Settings | mass density [kg/m3] | speed of sound [m/s] | viscosity [mPa·s]
293.15 K, m1 = 0.0255 | 999.11 | 1485.3 | 1.006
293.15 K, m1 = 0.0494 | 999.92 | 1486.9 | 1.012
293.15 K, m1 = 0.0754 | 1000.8 | 1488.6 | 1.018
293.15 K, m1 = 0.1 | 1001.64 | – | 1.024
293.15 K, m1 = 0.1253 | 1002.5 | 1491.8 | 1.03
293.15 K, m1 = 0.15 | 1003.35 | 1493.4 | 1.037
293.15 K, m1 = 0.2002 | 1005.07 | 1496.5 | 1.049
293.15 K, m1 = 0.2492 | 1006.75 | 1499.4 | 1.062
293.15 K, m1 = 0.3001 | 1008.5 | 1502.4 | 1.075
293.15 K, m1 = 0.3489 | 1010.18 | 1505.1 | 1.088
293.15 K, m1 = 0.4003 | 1011.96 | 1507.9 | 1.102
298.15 K, m1 = 0.0255 | 997.93 | 1498.6 | 0.8937
298.15 K, m1 = 0.0494 | 998.74 | 1500.2 | 0.8984
298.15 K, m1 = 0.0754 | 999.61 | 1501.9 | 0.9036
298.15 K, m1 = 0.1 | 1000.45 | – | 0.9086
298.15 K, m1 = 0.1253 | 1001.3 | 1505.1 | 0.9138
298.15 K, m1 = 0.15 | 1002.14 | 1506.6 | 0.9191
298.15 K, m1 = 0.2002 | 1003.84 | 1509.7 | 0.9298
298.15 K, m1 = 0.2492 | 1005.51 | 1512.6 | 0.9401
298.15 K, m1 = 0.3001 | 1007.25 | 1515.6 | 0.951
298.15 K, m1 = 0.3489 | 1008.91 | 1518.4 | 0.9616
298.15 K, m1 = 0.4003 | 1010.67 | 1521.3 | 0.9729
303.15 K, m1 = 0.0255 | 996.53 | 1510.1 | 0.8001
303.15 K, m1 = 0.0494 | 997.34 | 1511.6 | 0.804
303.15 K, m1 = 0.0754 | 998.21 | 1513.3 | 0.8084
303.15 K, m1 = 0.1 | 999.03 | – | 0.8125
303.15 K, m1 = 0.1253 | 999.88 | 1516.4 | 0.8169
303.15 K, m1 = 0.15 | 1000.71 | 1517.9 | 0.8213
303.15 K, m1 = 0.2002 | 1002.4 | 1521 | 0.8301
303.15 K, m1 = 0.2492 | 1004.05 | 1523.9 | 0.8389
303.15 K, m1 = 0.3001 | 1005.77 | 1526.9 | 0.8482
303.15 K, m1 = 0.3489 | 1007.42 | 1529.7 | 0.8571
303.15 K, m1 = 0.4003 | 1009.16 | 1532.6 | 0.8661
308.15 K, m1 = 0.0255 | 994.92 | 1521.4 | 0.7213
308.15 K, m1 = 0.0494 | 995.72 | 1522.9 | 0.7246
308.15 K, m1 = 0.0754 | 996.58 | 1524.5 | 0.7282
308.15 K, m1 = 0.1 | 997.4 | – | 0.7317
308.15 K, m1 = 0.1253 | 998.25 | 1527.6 | 0.7353
308.15 K, m1 = 0.15 | 999.08 | 1529.1 | 0.7389
308.15 K, m1 = 0.2002 | 1000.75 | 1532.2 | 0.7463
308.15 K, m1 = 0.2492 | 1002.39 | 1535.1 | 0.7537
308.15 K, m1 = 0.3001 | 1004.1 | 1538.1 | 0.7612
308.15 K, m1 = 0.3489 | 1005.74 | 1540.9 | 0.7687
308.15 K, m1 = 0.4003 | 1007.46 | 1543.8 | 0.7765
313.15 K, m1 = 0.0255 | 993.1 | 1528.4 | 0.6545
313.15 K, m1 = 0.0494 | 993.89 | 1529.8 | 0.6572
313.15 K, m1 = 0.0754 | 994.75 | 1531.4 | 0.6602
313.15 K, m1 = 0.1 | 995.57 | – | 0.6632
313.15 K, m1 = 0.1253 | 996.41 | 1534.4 | 0.6663
313.15 K, m1 = 0.15 | 997.23 | 1535.8 | 0.6693
313.15 K, m1 = 0.2002 | 998.9 | 1538.8 | 0.6756
313.15 K, m1 = 0.2492 | 1000.53 | 1541.7 | 0.6818
313.15 K, m1 = 0.3001 | 1002.22 | 1544.6 | 0.6882
313.15 K, m1 = 0.3489 | 1003.84 | 1547.3 | 0.6944
313.15 K, m1 = 0.4003 | 1005.55 | 1550.2 | 0.7007
318.15 K, m1 = 0.0255 | 991.08 | 1534.5 | 0.5987
318.15 K, m1 = 0.0494 | 991.87 | 1535.9 | 0.6009
318.15 K, m1 = 0.0754 | 992.73 | 1537.4 | 0.6034
318.15 K, m1 = 0.1 | 993.54 | – | 0.6058
318.15 K, m1 = 0.1253 | 994.38 | 1540.3 | 0.6084
318.15 K, m1 = 0.15 | 995.19 | 1541.7 | 0.611
318.15 K, m1 = 0.2002 | 996.85 | 1544.5 | 0.6163
318.15 K, m1 = 0.2492 | 998.46 | 1547.3 | 0.6215
318.15 K, m1 = 0.3001 | 1000.14 | 1550.2 | 0.6268
318.15 K, m1 = 0.3489 | 1001.75 | 1552.9 | 0.6321
318.15 K, m1 = 0.4003 | 1003.44 | 1555.7 | 0.6375

O [water] + NNC(=O)c1ccncc1
m2 = 0
Settings | mass density [kg/m3] | speed of sound [m/s] | viscosity [mPa·s]
293.15 K | – | 1483.6 | 1.002
298.15 K | – | – | 0.8903
303.15 K | – | 1508.4 | 0.7973
308.15 K | 994.07 | – | 0.719
313.15 K | – | 1526.8 | 0.6526
318.15 K | – | 1533 | 0.5972
